For orientation: IC50 means the concentration that gives 50% inhibition.

Some results are limits rather than exact numbers.

In assay [1] the target is T1, Caspase-1 (Mus musculus) (UniProt P29452).
T1 sequence (whole entry): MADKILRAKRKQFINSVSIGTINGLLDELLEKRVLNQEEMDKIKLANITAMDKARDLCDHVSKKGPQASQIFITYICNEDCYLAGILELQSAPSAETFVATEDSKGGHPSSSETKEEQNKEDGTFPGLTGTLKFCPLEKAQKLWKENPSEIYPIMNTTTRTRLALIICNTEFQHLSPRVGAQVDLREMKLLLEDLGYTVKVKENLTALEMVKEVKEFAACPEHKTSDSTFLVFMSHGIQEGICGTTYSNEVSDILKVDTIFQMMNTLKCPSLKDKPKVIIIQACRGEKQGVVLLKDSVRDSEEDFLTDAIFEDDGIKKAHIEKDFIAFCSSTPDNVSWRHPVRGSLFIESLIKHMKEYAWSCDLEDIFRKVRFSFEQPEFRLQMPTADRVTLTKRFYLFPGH
Description: Inhibitory activity against murine caspase-1.

The target of assay [2] is Caspase-8 (Homo sapiens) (UniProt Q14790). Kind of assay: Inhibitory activity against caspase-8 (Csp-8).
Caspase-8 (Homo sapiens), sequence (Q14790 217-374 limits assumed): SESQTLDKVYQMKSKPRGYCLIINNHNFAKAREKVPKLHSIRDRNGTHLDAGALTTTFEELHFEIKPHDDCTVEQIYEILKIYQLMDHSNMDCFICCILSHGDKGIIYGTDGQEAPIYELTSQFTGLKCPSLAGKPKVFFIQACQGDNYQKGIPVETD
Caspase-8 (Homo sapiens), sequence (Q14790 385-479 limits assumed): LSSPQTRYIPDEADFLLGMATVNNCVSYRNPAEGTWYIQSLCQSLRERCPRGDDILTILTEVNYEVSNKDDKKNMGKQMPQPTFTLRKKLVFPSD
The target of assay [3] is T2, Caspase-6 (Homo sapiens) (UniProt P55212).
T2 sequence (whole entry): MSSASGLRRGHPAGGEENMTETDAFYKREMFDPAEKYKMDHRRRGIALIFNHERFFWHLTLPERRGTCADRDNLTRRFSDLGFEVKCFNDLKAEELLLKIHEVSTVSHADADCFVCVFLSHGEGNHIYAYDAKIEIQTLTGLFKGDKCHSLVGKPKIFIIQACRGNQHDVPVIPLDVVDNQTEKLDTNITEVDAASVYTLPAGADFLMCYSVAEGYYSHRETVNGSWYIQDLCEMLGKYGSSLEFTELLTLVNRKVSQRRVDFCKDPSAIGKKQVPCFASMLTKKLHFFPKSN
Kind of assay: Inhibitory activity against caspase-6 (Csp-6).

The test system of assay [4] is Jurkat. Description: Cellular assay in a Fas-induced model of apoptosis in Jurkat cells. In kind it is functional, cell-based. To be noted: Homo sapiens.
A short description of assay [5]: Cellular assay in a model of neuronal apoptosis involving cortical neurons exposed to concanavalin A. In kind it is functional.
The target in assay [6] is T3, Caspase-3 (Homo sapiens) (UniProt P42574).
T3 sequence (whole entry): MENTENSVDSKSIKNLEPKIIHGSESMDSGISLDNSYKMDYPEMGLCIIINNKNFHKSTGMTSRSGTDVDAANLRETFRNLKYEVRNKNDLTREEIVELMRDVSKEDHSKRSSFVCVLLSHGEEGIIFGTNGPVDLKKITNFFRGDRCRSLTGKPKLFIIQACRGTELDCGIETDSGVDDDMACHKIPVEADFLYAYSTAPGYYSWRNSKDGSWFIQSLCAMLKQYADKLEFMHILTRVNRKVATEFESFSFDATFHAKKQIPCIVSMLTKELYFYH
Kind of assay: Inhibitory activity against caspase-3 (Csp-3).

Assay [7] is filed under the species Homo sapiens. Kind of assay: Cellular assay in an inflammation model measuring IL1-beta secretion from isolated human monocytes induced with Staph A. The format is functional.

In the case of `CC(C)[C@H](NC(=O)COc1cccc2ccccc12)C(=O)N[C@@H](CC(=O)O)C(=O)COc1ccc(OC(F)(F)F)cc1`, the k3/Ki in assay [1] was 2360 M⁻¹ s⁻¹; in assay [2], 2420 M⁻¹ s⁻¹; in assay [3] it was 776 M⁻¹ s⁻¹; in assay [6] it was 10500 M⁻¹ s⁻¹. For the same molecule, the figures for the IC50 in assay [4] and in assay [5] were 29.1 µM and more than 50 µM, respectively.

As for `CC(C)[C@H](NC(=O)COc1cccc2ccccc12)C(=O)N[C@@H](CC(=O)O)C(=O)COc1cc(C(F)(F)F)cc(C(F)(F)F)c1`, the k3/Ki in assay [1] amounted to 783 M⁻¹ s⁻¹; in assay [2], 68 M⁻¹ s⁻¹; in assay [3], 193 M⁻¹ s⁻¹; in assay [6], 5350 M⁻¹ s⁻¹. Further, the IC50 was more than 100 µM in assay [4] and more than 50 µM in assay [5].

As to `CC(C)[C@H](NC(=O)COc1cccc2ccccc12)C(=O)N[C@@H](CC(=O)O)C(=O)COc1c(F)ccc(F)c1F`, the k3/Ki worked out at 47100 M⁻¹ s⁻¹ in assay [1], 17000 M⁻¹ s⁻¹ in assay [2], 81700 M⁻¹ s⁻¹ in assay [3] and 188000 M⁻¹ s⁻¹ in assay [6]. In addition, the values for the IC50 in assay [4] and in assay [5] were 1.2 µM and 2.43 µM, respectively.

Regarding `CC(C)[C@H](NC(=O)COc1cccc2ccccc12)C(=O)N[C@@H](CC(=O)O)C(=O)COc1cc(F)c(F)cc1F`, the k3/Ki in assay [1] amounted to 11400 M⁻¹ s⁻¹; in assay [2], 668 M⁻¹ s⁻¹; in assay [3], 634 M⁻¹ s⁻¹; in assay [6] it was 24400 M⁻¹ s⁻¹. Besides, the values for the IC50 in assay [7], in assay [4] and in assay [5] were 16.7 µM, 39.3 µM and 4.16 µM, respectively.

Take `CC(C)[C@H](NC(=O)COc1cccc2ccccc12)C(=O)N[C@@H](CC(=O)O)C(=O)COc1cccc(C(F)(F)F)c1F`: the k3/Ki in assay [1] was 7220 M⁻¹ s⁻¹; in assay [2] it was 1030 M⁻¹ s⁻¹; in assay [3], 683 M⁻¹ s⁻¹; in assay [6], 33900 M⁻¹ s⁻¹. Also, the IC50 in assay [7] amounted to 18.2 µM; in assay [4], 50.4 µM; in assay [5] it was 3.7 µM.

Regarding `CC(C)[C@H](NC(=O)COc1cccc2ccccc12)C(=O)N[C@@H](CC(=O)O)C(=O)COc1ccc(C(=O)c2ccccc2)cc1`, the figures for the k3/Ki in assay [1], in assay [2] and in assay [6] were 1520 M⁻¹ s⁻¹, 21 M⁻¹ s⁻¹ and 17700 M⁻¹ s⁻¹, respectively. The molecule further had an IC50 in assay [4] of more than 100 µM.

As to `CC(C)[C@H](NC(=O)COc1cccc2ccccc12)C(=O)N[C@@H](CC(=O)O)C(=O)COP(=O)(c1ccccc1)c1ccccc1`, the k3/Ki in assay [1] was 143000 M⁻¹ s⁻¹; in assay [2] it was 59300 M⁻¹ s⁻¹; in assay [3], 39700 M⁻¹ s⁻¹; in assay [6], 351000 M⁻¹ s⁻¹. Moreover, the IC50 in assay [7] was found to be 3.48 µM; in assay [4], 18.4 µM.

Consider `CC(C)[C@H](NC(=O)COc1cccc2ccccc12)C(=O)N[C@@H](CC(=O)O)C(=O)COc1ccc2oc(=O)sc2c1`, for which the k3/Ki was found to be 2240 M⁻¹ s⁻¹ in assay [1], 130 M⁻¹ s⁻¹ in assay [2], 81 M⁻¹ s⁻¹ in assay [3] and 5890 M⁻¹ s⁻¹ in assay [6]. In addition, the IC50 in assay [7] was 25.7 µM; in assay [4] it was more than 100 µM.

As for `CC(C)[C@H](NC(=O)COc1cccc2ccccc12)C(=O)N[C@@H](CC(=O)O)C(=O)COc1cc(F)cc(F)c1F`, the k3/Ki in assay [1] is 14700 M⁻¹ s⁻¹; in assay [2], 1470 M⁻¹ s⁻¹; in assay [3], 1510 M⁻¹ s⁻¹; in assay [6] it was 60100 M⁻¹ s⁻¹. For the same molecule, the IC50 came out at 11.2 µM in assay [7], 30 µM in assay [4] and 3.75 µM in assay [5].

As for `CC(C)[C@H](NC(=O)COc1cccc2ccccc12)C(=O)N[C@@H](CC(=O)O)C(=O)COc1ccc(F)cc1F`, the k3/Ki came out at 8400 M⁻¹ s⁻¹ in assay [1], 628 M⁻¹ s⁻¹ in assay [2] and 21700 M⁻¹ s⁻¹ in assay [6]. Further, the values for the IC50 in assay [7], in assay [4] and in assay [5] were 17.6 µM, 33.2 µM and more than 50 µM, respectively.

As for `CC(C)[C@H](NC(=O)COc1cccc2ccccc12)C(=O)N[C@@H](CC(=O)O)C(=O)COc1c(F)c(F)c(F)c(F)c1F`, the k3/Ki in assay [1] turned out to be 14700 M⁻¹ s⁻¹; in assay [2], 8040 M⁻¹ s⁻¹; in assay [3], 13600 M⁻¹ s⁻¹; in assay [6] it was 56600 M⁻¹ s⁻¹. Moreover, the IC50 is 8.89 µM in assay [7] and 3.05 µM in assay [4].

As for `CC(C)[C@H](NC(=O)COc1cccc2ccccc12)C(=O)N[C@@H](CC(=O)O)C(=O)COc1ccccc1C(F)(F)F`, the k3/Ki in assay [1] turned out to be 5630 M⁻¹ s⁻¹; in assay [2], 75 M⁻¹ s⁻¹; in assay [3], 494 M⁻¹ s⁻¹; in assay [6], 20000 M⁻¹ s⁻¹. Also, the figures for the IC50 in assay [7], in assay [4] and in assay [5] were 17.3 µM, more than 100 µM and more than 50 µM, respectively.

Turning to `CC(C)[C@H](NC(=O)COc1cccc2ccccc12)C(=O)N[C@@H](CC(=O)O)C(=O)COc1c(F)cccc1F`, the k3/Ki in assay [1] was 53900 M⁻¹ s⁻¹; in assay [2], 9080 M⁻¹ s⁻¹; in assay [3], 9980 M⁻¹ s⁻¹; in assay [6] it was 200000 M⁻¹ s⁻¹. Moreover, the results for the IC50 in assay [7], in assay [4] and in assay [5] were more than 100 µM, 2.04 µM and 2.4 µM, respectively.

Turning to `CC(C)[C@H](NC(=O)COc1cccc2ccccc12)C(=O)N[C@@H](CC(=O)O)C(=O)COc1ccc(Oc2ccccc2)cc1`, the k3/Ki is 1900 M⁻¹ s⁻¹ in assay [1], 668 M⁻¹ s⁻¹ in assay [2], 370 M⁻¹ s⁻¹ in assay [3] and 9520 M⁻¹ s⁻¹ in assay [6]. In addition, the figures for the IC50 in assay [7], in assay [4] and in assay [5] were 19 µM, 12.7 µM and more than 50 µM, respectively.

Regarding `CC(C)[C@H](NC(=O)COc1cccc2ccccc12)C(=O)N[C@@H](CC(=O)O)C(=O)COc1ccc(F)cc1`, the k3/Ki in assay [1] turned out to be 9120 M⁻¹ s⁻¹; in assay [2], 699 M⁻¹ s⁻¹; in assay [6], 8560 M⁻¹ s⁻¹. Also, the IC50 was 14.3 µM in assay [7], more than 100 µM in assay [4] and more than 50 µM in assay [5].

For `CC(C)[C@H](NC(=O)COc1cccc2ccccc12)C(=O)N[C@@H](CC(=O)O)C(=O)COc1cccc(OC(F)(F)F)c1`, the k3/Ki is 1410 M⁻¹ s⁻¹ in assay [1], 359 M⁻¹ s⁻¹ in assay [2] and 30600 M⁻¹ s⁻¹ in assay [6]. Moreover, the values for the IC50 in assay [7], in assay [4] and in assay [5] were 15.4 µM, more than 100 µM and more than 50 µM, respectively.

As for `CC(C)[C@H](NC(=O)COc1cccc2ccccc12)C(=O)N[C@@H](CC(=O)O)C(=O)COc1ccccc1F`, the k3/Ki in assay [1] is 6020 M⁻¹ s⁻¹; in assay [2], 233 M⁻¹ s⁻¹; in assay [6] it was 26800 M⁻¹ s⁻¹. The figures for the IC50 in assay [7], in assay [4] and in assay [5] were 15.7 µM, more than 100 µM and 15 µM, respectively.

As to `CC(C)[C@H](NC(=O)COc1cccc2ccccc12)C(=O)N[C@@H](CC(=O)O)C(=O)COc1cccc(C(F)(F)F)c1`, the k3/Ki amounted to 2450 M⁻¹ s⁻¹ in assay [1], 150 M⁻¹ s⁻¹ in assay [2] and 7980 M⁻¹ s⁻¹ in assay [6]. Further, the IC50 in assay [7] was 16.6 µM; in assay [4], more than 100 µM; in assay [5] it was more than 50 µM.

For the molecule `CC(C)[C@H](NC(=O)COc1cccc2ccccc12)C(=O)N[C@@H](CC(=O)O)C(=O)COc1cccc(F)c1F`, the k3/Ki in assay [1] was 14800 M⁻¹ s⁻¹; in assay [2] it was 197 M⁻¹ s⁻¹; in assay [3] it was 1610 M⁻¹ s⁻¹; in assay [6], 28800 M⁻¹ s⁻¹. The same molecule yielded an IC50 in assay [5] of 5.2 µM.

Take `CC(=O)Nc1cccc(OCC(=O)[C@H](CC(=O)O)NC(=O)[C@@H](NC(=O)COc2cccc3ccccc23)C(C)C)c1`: the k3/Ki in assay [1] came to 612 M⁻¹ s⁻¹; in assay [6], 4900 M⁻¹ s⁻¹. The IC50 in assay [4] was more than 100 µM; in assay [5], more than 50 µM.

With `CC(C)[C@H](NC(=O)COc1cccc2ccccc12)C(=O)N[C@@H](CC(=O)O)C(=O)COc1ccc(C(N)=O)cc1`, the values for the k3/Ki in assay [1], in assay [3] and in assay [6] were 3650 M⁻¹ s⁻¹, 744 M⁻¹ s⁻¹ and 17700 M⁻¹ s⁻¹, respectively. The IC50 in assay [4] is more than 100 µM; in assay [5] it was more than 50 µM.

Source of the values: ChEMBL document CHEMBL1136305, “Structure-activity relationships within a series of caspase inhibitors: effect of leaving group modifications” (Bioorg Med Chem Lett, 2003).
